Where two headings read alike, the source gives them in different places.
System: human skin keratinocytes and/or fibroblasts
Assay: in vitro ROS probe assay: protection of live skin cells against ROS induced by visible light and infrared radiation
Format: cell-based
Design: key to Visible light protection % / IR protection %: Strong: “strong” refers to a percent protection greater than 70%; “Medium” refers to a percent protection less than or equal to 70% but greater than or equal to 40%; “Low” refers to a percent protection less than 40%; Negative: The term “negative” is used when there is no protection
Settings: cells pre-treated 24 hours at 10 μg/ml (0.001%), antioxidant removed before exposure; for inhibition at 10 µg/mL: Homo sapiens, light or radiation study
Text: A sensitive in vitro ROS (Reactive Oxygen Species) probe was used to evaluate the protective effects of antioxidants on live skin cells against visible light and infrared radiation (IR). Based on a blind screening of 26 compounds, 12 compounds were discovered that efficiently (>40%) decrease the ROS induced by visible light and/or IR radiation on human skin keratinocytes and/or fibroblasts. These compounds (or mixtures of these compounds) provide biological protection for skin cells against visible light and infrared radiation.
Human cells were pre-treated with and without antioxidants for 24 hours at a very low concentration (10 μg/ml (0.001%)). After incubation for 24 hours, the cells were rinsed and the medium changed in order to remove all the antioxidants before light exposure. The cells were exposed to visible light (100 J/cm^2) and infrared radiation (200 J/cm^2) using Xenon Light Source 300W Monochromatic Light with Filters Max-303 (Asashi Spectra company). After exposure to the visible light and the IR radiation, a new ROS probe was incubated with the cells for one hour to track the in vitro ROS produced. A comfocal microscope and associated software was used to image the fluorescent signals from individual cells and quantify the fluorescence intensity. By comparing with control samples without a pretreatment of antioxidants, it was possible to quantify the protection effect.
In the table above, “strong” refers to a percent protection greater than 70%, “Medium” refers to a percent protection less than or equal to 70% but greater than or equal to 40%. “Low” refers to a percent protection less than 40%. The term “negative” is used when there is no protection. The protection percentage was defined according to the equation below (wherein the term “AOX” refers to “antioxidant”).
Since the in vitro tests were done on live human skin cells, kerotinocytes and fibroblasts, and the antioxidants in the cell culture media were removed before light exposure, the results directly predict the biological protection effects of the antioxidants on skin against visible light and infrared radiation.

[1] = ROS induced by infrared radiation (200 J/cm^2), read-out: IR protection %
[2] = ROS induced by visible light (100 J/cm^2), read-out: Visible light protection %
[3] = ROS induced by infrared radiation (200 J/cm^2)
[4] = ROS induced by visible light (100 J/cm^2)

Compound | inhibition at 10 µg/mL [1] [%] | inhibition at 10 µg/mL [2] [%] | IR protection % [3] | Visible light protection % [4]
COc1ccc([C@@H]2CC(=O)c3c(O)cc(O)cc3O2)cc1O [Hesperetin, hesperetin] | < 40 | > 70 | – | –
NCCC(=O)N[C@@H](Cc1c[nH]cn1)C(=O)O [Carnosin] | – | – | Low (“Low” refers to a percent protection less than 40%) | Low (“Low” refers to a percent protection less than 40%)
C[C@@H]1O[C@@H](O[C@H]2C(=O)c3c(O)cc(O)cc3O[C@@H]2c2ccc(O)c(O)c2)[C@H](O)[C@H](O)[C@H]1O [Astilbin, astilbin] | 40 to 70 | 40 to 70 | – | –
catechin | – | – | Medium (“Medium” refers to a percent protection less than or equal to 70% but greater than or equal to 40%) | Strong (“strong” refers to a percent protection greater than 70%)
COc1cc(/C=C/C(=O)O)ccc1O [Ferulic Acid, ferulic acid] | 40 to 70 | 40 to 70 | – | –
COc1ccc(CCC(=O)c2c(O)cc(O[C@@H]3O[C@H](CO)[C@@H](O)[C@H](O)[C@H]3O[C@@H]3O[C@@H](C)[C@H](O)[C@@H](O)[C@H]3O)cc2O)cc1O [Neohesperidin DHC] | – | – | Strong (“strong” refers to a percent protection greater than 70%) | Negative
Oc1ccc(C=Cc2cc(O)cc(O)c2)cc1 [Resveratrol] | – | < 40 | Negative | –
O=C(O)[C@H]1O[C@@H](Oc2cc3oc(-c4ccccc4)cc(=O)c3c(O)c2O)[C@H](O)[C@@H](O)[C@@H]1O [Baicalin, baicalin] | 40 to 70 | > 70 | – | –
C=CC(C)(C)c1cc(/C=C/C(=O)c2ccc(O)cc2)c(OC)cc1O [licochalcone A] | – | – | – | Negative
COC1=C(OC)C(=O)C(C/C=C(\C)CC/C=C(\C)CC/C=C(\C)CC/C=C(\C)CC/C=C(\C)CC/C=C(\C)CC/C=C(\C)CC/C=C(\C)CC/C=C(\C)CCC=C(C)C)=C(C)C1=O [Ubiquinone(coQ10), Ubiquinone] | > 70 | – | – | –
O=C(CCc1ccc(O)cc1)c1c(O)cc(O)cc1O [Phloretin] | – | – | – | Negative
O=C1N[C@H](C(=O)O)CS1 [Pro-cysteine] | < 40 | – | – | Negative
O=C1O[C@H]([C@@H](O)CO)C(O)=C1O [Vit C] | – | – | Low (“Low” refers to a percent protection less than 40%) | Low (“Low” refers to a percent protection less than 40%)
CC1=NCC[C@@H](C(=O)O)N1 [Ronacare Ectoin] | – | – | Low (“Low” refers to a percent protection less than 40%) | Negative
OC[C@H]1O[C@@H](Oc2cc(O)cc(/C=C/c3ccc(O)cc3)c2)[C@H](O)[C@@H](O)[C@@H]1O [Polydatin, polydatin] | > 70 | > 70 | – | –

Source: US10137072B2, “Methods and compositions for providing broad spectrum photo protection using antioxidants” (L'OREAL, priority 2016, dated 2018)
